From ChEMBL document CHEMBL4346657, “Anticancer activity, dual prooxidant/antioxidant effect and apoptosis induction profile of new bichalcophene-5-carboxamidines” (Eur J Med Chem, 2019)
pIC50: −log10 of the molar value. The source made the active and inactive calls. The calls are words filed in the database; no cut-off is given here.

Key:
[1] = Antioxidant activity assessed as ABTS radical scavenging activity by spectrophotometric analysis relative to control; assay type: functional; parameters: concentration or dose not given beside the values; settings: dose or concentration not given here
K562 = assay: Antiproliferative activity against human K562 cells assessed as growth inhibition after 48 hrs by sulforhodamine B assay; assay type: functional, cell-based; settings: K562, 48 h; for pIC50: read-out: IC50; for IC50: read-out: pIC50 (converted)
[2] = Haemolytic activity in human erythrocytes assessed as induction of hemolysis at 2.5 mM after 30 mins relative to H202; assay type: cell-based, Erythrocyte; settings: erythrocytes, read-out: Activity
[3] = Pro-oxidant activity assessed as increase in bleomycin-Fe2+ induced calf thymus DNA damage at 2 mM after 1 hr by thiobarbituric acid based absorbance analysis
[4] = Antioxidant activity assessed as hydroxyl radical scavenging activity after 1 hr by salicylic acid-based Fenton reaction assay; assay type: functional
[5] = (§1) Haemolytic activity in human erythrocytes assessed as induction of hemolysis at 1.25 mM after 30 mins relative to H202; assay type: cell-based, Erythrocyte; settings: erythrocytes, read-out: Activity
[6] = Antioxidant activity assessed as DPPH radical scavenging activity incubated in dark for 30 mins by spectrophotometric method relative to control; assay type: functional; parameters: concentration or dose not given beside the values
HCT-116 [7] = assay: Induction of apoptosis in human HCT116 cells assessed as increase in p53 mRNA expression at 100 nM after 6 hrs hrs by SYBR green dye-based qRT-PCR analysis relative to control; assay type: functional
HCT-116 [8] = assay: […] in CDK1 mRNA expression in human HCT116 cells at 100 nM after 6 hrs hrs by SYBR green dye-based qRT-PCR analysis relative to control; assay type: functional
WI-38 = assay: Cytotoxicity activity against human WI38 cells assessed as reduction in cell viability measured after 48 hrs by MTT assay; assay type: cell-based; settings: WI-38, 48 h
HCT-116 [9] = assay: Induction of apoptosis in human HCT116 cells assessed as increase in caspase 3 mRNA expression at 100 nM after 6 hrs hrs by SYBR green dye-based qRT-PCR analysis relative to control; assay type: functional
[10] = Haemolytic activity in human erythrocytes assessed as induction of hemolysis at 5 mM after 30 mins relative to H202; assay type: cell-based, Erythrocyte; settings: read-out: Activity
[11] = (§2) Haemolytic activity in human erythrocytes assessed as induction of hemolysis at 0.625 mM after 30 mins relative to H202; assay type: cell-based, Erythrocyte; settings: erythrocytes, read-out: Activity
[12] = (§3) Selectivity index, ratio of IC50 for human WI38 cells to GI50 for human NCI60 cells
[13] = Antioxidant activity assessed as DPPH radical scavenging activity incubated in dark for 30 mins by spectrophotometric method relative to ascorbic acid; assay type: functional
[14] = Haemolytic activity in human erythrocytes assessed as induction of hemolysis at 10 mM after 30 mins relative to H202; assay type: cell-based, Erythrocyte; settings: read-out: Activity
HCT-116 [15] = assay: Induction of apoptosis in human HCT116 cells assessed as increase in caspase 9 mRNA expression at 100 nM after 6 hrs hrs by SYBR green dye-based qRT-PCR analysis relative to control; assay type: functional
[16] = Antioxidant activity assessed as ABTS radical scavenging activity by spectrophotometric method relative to ascorbic acid; assay type: functional
Homo sapiens = species on record: Homo sapiens; assay: as §3
HCT-116 [17] = assay: Reduction in CDK1 mRNA expression in human HCT116 cells at 100 nM after 6 hrs hrs by SYBR green dye-based qRT-PCR analysis relative to control; assay type: functional; settings: HCT-116, 6 h
Erythrocyte [18] = assay: as §1; assay type: cell-based; settings: erythrocyte, 0.5 h, 1250 µM
Erythrocyte [19] = assay: as §2; assay type: cell-based; settings: erythrocyte, 0.5 h, 625 µM

## COc1ccc(-c2ccc(-c3ccc(C(=N)N)s3)s2)cc1
[1]
  inhibition: 59.2%
K562
  pIC50: 6.74
  IC50: 19500 µM
[2]
  hemolysis at 0.5 h, 2500 µM: 41%
[3]
  Activity: Active
[4]
  Activity: Active
[5]
  hemolysis at 0.5 h, 1250 µM: 17.3%
[6]
  inhibition: 51.9%
HCT-116 [7]
  fold change (FC): 1.06
HCT-116 [8]
  fold change (FC): 0.91
WI-38
  pIC50: 4.89
HCT-116 [9]
  fold change (FC): 2.51
[10]
  hemolysis at 0.5 h, 5000 µM: 63.7%
[11]
  hemolysis at 0.5 h, 625 µM: 4%
[12]
  Selectivity Index: 43
[13]
  fold change (FC): 0.6
[14]
  hemolysis at 0.5 h, 10000 µM: 92.7%
HCT-116 [15]
  fold change (FC): 2.38
[16]
  fold change (FC): 0.6

## O=c1[nH]cc(F)c(=O)[nH]1 [FLUOROURACIL]
HCT-116 [7]
  fold change (FC): 1.48
HCT-116 [8]
  fold change (FC): 0.48
WI-38
  pIC50: 5.08
HCT-116 [9]
  fold change (FC): 3.92
Homo sapiens
  Selectivity Index: inactive
HCT-116 [15]
  fold change (FC): 4.53
HCT-116 [17]
  inhibition at 0.1 µM: 50 to 52%

## O=C1O[C@H]([C@@H](O)CO)C(O)=C1O [ASCORBIC ACID]
[2]
  hemolysis at 0.5 h, 2500 µM: 4%
Erythrocyte [18]
  Activity: Non-Toxic
[10]
  hemolysis at 0.5 h, 5000 µM: 8%
Erythrocyte [19]
  Activity: Non-Toxic
[13]
  fold change (FC): 1
[14]
  hemolysis at 0.5 h, 10000 µM: 16.3%
[16]
  fold change (FC): 1

## N=C(N)c1ccc(-c2ccc(-c3ccccc3)s2)s1
[1]
  inhibition: 61.7%
K562
  pIC50: 6.62
  IC50: 38000 µM
[2]
  hemolysis at 0.5 h, 2500 µM: 15.3%
[3]
  Activity: Active
[4]
  Activity: Active
Erythrocyte [18]
  Activity: Non-Toxic
[6]
  inhibition: 53%
HCT-116 [7]
  fold change (FC): 1.1
HCT-116 [8]
  fold change (FC): 0.88
WI-38
  pIC50: 4.31
HCT-116 [9]
  fold change (FC): 2.39
[10]
  hemolysis at 0.5 h, 5000 µM: 56.7%
Erythrocyte [19]
  Activity: Non-Toxic
[12]
  Selectivity Index: 38.3
[13]
  fold change (FC): 0.6
[14]
  hemolysis at 0.5 h, 10000 µM: 85.1%
HCT-116 [15]
  fold change (FC): 2.47
[16]
  fold change (FC): 0.7

## COc1cccc(-c2ccc(-c3ccc(C(=N)N)s3)s2)c1
[1]
  inhibition: 58.2%
K562
  pIC50: 6.74
  IC50: 19500 µM
[2]
  hemolysis at 0.5 h, 2500 µM: 16.1%
[3]
  Activity: Active
[4]
  Activity: Active
[5]
  hemolysis at 0.5 h, 1250 µM: 3.1%
[6]
  inhibition: 47.5%
HCT-116 [7]
  fold change (FC): 0.89
HCT-116 [8]
  fold change (FC): 0.93
WI-38
  pIC50: 4.11
HCT-116 [9]
  fold change (FC): 3.71
[10]
  hemolysis at 0.5 h, 5000 µM: 39%
Erythrocyte [19]
  Activity: Non-Toxic
[12]
  Selectivity Index: 148.4
[13]
  fold change (FC): 0.5
[14]
  hemolysis at 0.5 h, 10000 µM: 79%
HCT-116 [15]
  fold change (FC): 1.01
[16]
  fold change (FC): 0.6
